Here are results for two compounds from patent publication US20060229255A1, “Identification of n-alkylglycine trimers for induction of apoptosis” (priority 2003, published 2006).

In experiment [1] the test system is HT29 human colon adenocarcinoma cells. Description: Cellular proliferation assay (MTT). In kind it is cell-based. The following applies: for IC50: HT29, MTT assay after 72 h, read-out: IC50 proliferation inhibition; for Anti-proliferative effect in combination with serial dilutions of Taxol versus Taxol alone: HT29, compound at its IC50, 72 h; for Effect of Taxol on the compound's proliferation inhibition: HT29, with low dose of Taxol (11 nM), 72 h. The source says:
For screening of the peptoid library containing 10.648 compounds, controlled mixtures of trimers of N-alkylglycine oligomer molecules (peptoid) have been used and constructed under […] positional scanning formats. Chemical diversity was introduced through the substitution of position R1, R2 and R3 by 22 different primary amines. 66 controlled mixtures divided into three different subgroups depending on the R1, R2, R3 defined position. The library was screened on a cellular proliferation assay with HT29 human colon adenocarcinoma cells. The compounds were tested either alone or together with a low dose of Taxol (11 nM). After 72 h in culture, cellular viability was measured with the MTT assay.
Cellular Assays. Combinatorial libraries were screened on a cellular proliferation assay with HT29 human colon adenocarcinoma cells. The compounds were tested either alone or together with low doses of Taxol (nM). After 3 days in culture, cellular viability was measured with an MTT assay (3-4,5-Dimethyl-2-thiazolyl-2,5-diphenyl-2H-tetrazolium bromide). MTT was added at a final concentration of 1 mg/ml in the cell cultures, and after 4 h incubation at 37° C. cell lysis was performed with 15% SDS/DMF (v/v). Spectrophotometric measurement of MTT-formazan at 570 nm and a reference filter at 630 nm allows quantitation of cellular viability. Proliferation inhibition due to the compounds alone was compared to inhibition observed in Taxol plus compound treated cultures.
FIG. 1. Compounds N10-13-10C, N13-13-10C, N4-13-10C and N5-13-10C inhibit HT29 proliferation. Taxol interferes the effect of N10-13-10C and N13-13-10C. (A, B) HT29 cells were grown with peptoid at several concentrations with or without Taxol (11 nM). MTT assay was performed after 72 h of treatment. Proliferation inhibition is shown for N4-13-10C and N13-13-10C (A.), N5-13-10C and N10-13-10C (B.) compared to proliferation of control cells. IC50 value is specified for each peptoid. N10-13-10C and N13-13-10C were purified peptoids by HPLC, corresponding to the major and active fraction. N4-13-10C and N5-13-10C peptoids were not purified by HPLC. […] Proliferation was evaluated by MTT assay after 72 h of treatment. An arbitrary value of 100% was assigned to the densiometric rate of untreated cultures and all other values are depicted relative to that reference. The values are means of six (n=6) replicates.
Background: Tetrazolium dyes change colour on reduction, which living cells bring about.

Another experiment concerns HT29 cells. Description: DNA analysis by flow cytometry (cell cycle profile, sub-G1 peak). The class given is cell-based, human. The note with it: for Dose dependence of subG1 peak: HT29, 72 h, increasing dose 1-35 or 40 μM; for Apoptosis induction (sub-G1 peak detection): HT29, 72 h treatment; for Cells in G1-phase: HT29, compound alone, 24 h in culture; for Maximum apoptosis in time-course: HT29, highest dose assayed, 72 h; for Cell population retained in G2/M phase: HT29, in combination with low doses of Taxol. The protocol: DNA analysis. Floating and adherent cells treated with the compounds were collected by trypsinization and washed twice with PBS. The cells were permeabilized overnight at −20° C. with ice-cold ethanol 70%. The cells were washed in PBS, adjusted at 0.5×10^6 cells/ml and incubated with 20 μg/ml Propidium Iodide and 2 μl/ml RNase DNase-free for 30 min at 30° C. Cells were maintained overnight at 4° C. and then analysed by flow cytometry. Flow cytometric experiments were carried out using an Epics XL flow cytometer (Coulter Corporation, Hialeah, Fla.). The instrumet was set up with the standard configuration: excitation of the sample was done using an standard 488 nm air-cooled argon-ion laser at 15 mW power. Forward scatter (FSC), side scatter (SSC) and red (620 nm) fluorescence for PI were adquired. Optical alignement was based on optimized signal from […] fluorescent beads (Immunocheck, Epics Division). Time was used as a control of the stability of the instrument. Red fluorescence was projected on a 1024 monoparametrical histogram. Aggregates were excluded gating single cells by their area vs. peak fluorescence signal. DNA analysis (Ploidy analysis) on single fluorescence histograms was done using Multicycle software (Phoenix Flow Systems, San Diego, Calif.).
FIG. 2. N10-13-10C and N13-13-10C are pro-apoptotic peptoids while N4-13-10C and N5-13-10C are not. Cell cycle profile was analysed by DNA staining. HT29 cells were grown for 72 h in presence of N4-13-10C (100 μM), N5-13-10C (100 μM), N10-13-10C (40 μM), N13-13-10C (35 μM), Taxol (11 nM) or DMSO as negative control. Fraction of cells at G0/G1, S, G2/M or subG1 peak are specified.
FIG. 3. Specific pro apoptotic effect of N10-13-10C and N13-13-10C. (A) SubG1 peak analysis on several cell lines including HT29, LoVo, MDA.MB.435 and its lung metastatic derivatives lung 2 and lung 6 after 72 h treatment with N10-13-10C or N13-13-10C at IC50 values specified on Table 1. (B) Dose-response analysis of subG1 peak after 72 h treatment of HT29 cells with N 10-13-10C or N13-13-10C at 1, 5, 10, 20, 30 and 35 or 40 μM, respectively. Both, floating and adherent cells were collected, fixed, stained with propidium iodide and DNA content was evaluated by flow cytometry. The fraction of cells with hypodiplod DNA content, i.e. subG1 peak are shown.
FIG. 4. (A) Time course analysis of cell cycle profile after treatment of HT29 cells with N10-13-10C (40 μM), N13-13-10C (35 μM) and/or Taxol (11 nM) for 24 h, 48 h and 72 h. The fraction of cells with subG1 (dark blue), G0/G1 (red), S (yellow), G2/M (blue) DNA content are shown as % of total cell population. (B.) N13-13-10C pulse experiments. HT29 cells were treated transiently with 35 μM N13-13-10C for 1, 3, 6, 24, 48 or 72 h and returned to medium without product for up to 72 h. DNA staining was analyzed by flow cytometry.
(Flow cytometry measures light scatter and fluorescence of single cells or particles in a stream.)

The structures appear in SMILES notation.

Consider `COc1ccc(CCN(CC(=O)N(CCc2ccccc2)CC(N)=O)C(=O)CNCCc2ccccc2)cc1` [N10-13-10C], for which, in experiment [1], the IC50 came out at 40 µM, the “Anti-proliferative effect in combination with serial dilutions of Taxol versus Taxol alone” value is “potentated anti-proliferative effect” and the “Effect of Taxol on the compound's proliferation inhibition” value was “Taxol prevented the compound's effect”. In the experiment with HT29 cells, the “Dose dependence of subG1 peak” value is given as “dose-dependent apoptosis”, the “Apoptosis induction (sub-G1 peak detection)” value was “able to induce apoptosis”, the “Cells in G1-phase” value is “increase the percentage of cells in G1-phase” and the “Maximum apoptosis in time-course” value amounted to 20%. Moreover, the “Cell population retained in G2/M phase” value in the experiment with HT29 cells is “about 60%”.

Turning to `COc1ccc(CCNCC(=O)N(CCc2ccc(OC)cc2)CC(=O)N(CCc2ccccc2)CC(N)=O)cc1` [N13-13-10C], in experiment [1], the IC50 worked out at 35 µM, the “Anti-proliferative effect in combination with serial dilutions of Taxol versus Taxol alone” value was “potentated anti-proliferative effect” and the “Effect of Taxol on the compound's proliferation inhibition” value is “Taxol prevented the compound's effect”. The “Pulse necessary for irreversible induction of apoptosis” value in the experiment on HT29 cells (HT29, 35 μM, returned to drug-free medium up to 72 h) was at least 24 h. In the experiment on HT29 cells, the “Dose dependence of subG1 peak” value is reported as “dose-dependent apoptosis”, the “Apoptosis induction (sub-G1 peak detection)” value is “able to induce apoptosis”, the “Cells in G1-phase” value is on record as “increase the percentage of cells in G1-phase” and the “Maximum apoptosis in time-course” value is listed as “around 40%”. In the experiment on HT29 cells, the “Cell population retained in G2/M phase” value is “about 60%”. In addition, in the experiment on HT29 cells (HT29, pulses of 1, 3 and 6 h), the “Cell cycle profile after short time pulses” value was “do not differ from control cells”.
